Data taken from the RepoRT retention time repository (doi:10.1016/j.foodchem.2021.129757).
Blank lines part the entries; values can stand above or below the molecule they belong to.

Key:
Details in all cases: stereoisomer not certain
[1] = RP, Waters ACQUITY UPLC HSS T3, 100 × 2.1 mm, 1.8 µm, 30 °C, 0.4 mL/min, estimated dead time 0.55 min; A: water + 0.1% formic acid, pH 3; B: acetonitrile + 0.1% formic acid, pH 3; gradient (min/%B) 0/0 2/0 15/100 22/100 22.1/0 26/0
[2] = RP, Agilent InfinityLab Poroshell 120 EC-C18, 100 × 3 mm, 2.7 µm, 25 °C, 0.4 mL/min, estimated dead time 1.1 min; A: water + 0.1% formic acid, pH 3; B: acetonitrile + 0.1% formic acid, pH 3; gradient (min/%B) 0/5 10/25 20/40 24/90 25/90 26/5 30/5
[3] = RP, 150 × 2.1 mm, 2.6 µm, 40 °C, 0.35 mL/min, estimated dead time 0.94 min; A: water + 0.1% formic acid, pH 3; B: acetonitrile + 0.1% formic acid, pH 3; gradient (min/%B) 0/0 1/0 12.5/100 14/100 14.2/0 15/0
[4] = RP, Waters Atlantis T3, 100 × 2.1 mm, 3 µm, 40 °C, 0.3 mL/min, estimated dead time 0.73 min; A: water + 0.1% trifluoroacetic acid, pH 2; B: acetonitrile + 0.1% trifluoroacetic acid, pH 2; gradient (min/%B) 0/10 1/10 6/40 7/50 8/50 14/70 16/80 20/10 25/10
[5] = RP, 150 × 2.1 mm, 2.6 µm, 40 °C, 0.35 mL/min, estimated dead time 0.94 min; A: water + 0.1% formic acid, pH 3; B: acetonitrile + 0.1% formic acid, pH 3; gradient (min/%B) 0/0 1/5 7/45 8.5/80 10.5/80 11/5 12/5
[6] = RP, Phenomenex Kinetex EVO C18, 100 × 2.1 mm, 2.6 µm, 40 °C, 0.4 mL/min, estimated dead time 0.55 min; A: water + 0.2% formic acid; B: acetonitrile + 0.2% formic acid; gradient (min/%B) 0/5 0.5/5 7/95 8/95 8.5/5 12/5
[7] = RP, Agilent ZORBAX RRHD Eclipse Plus C18, 50 × 2.1 mm, 1.8 µm, 30 °C, 0.4 mL/min, estimated dead time 0.28 min; A: water + 0.1% formic acid, pH 3; B: acetonitrile + 0.1% formic acid, pH 3; gradient (min/%B) 0/1 5/10 8/25 9.1/99 10/99 12/99
[8] = RP, Agilent ZORBAX RRHD Eclipse Plus C18, 50 × 2.1 mm, 1.8 µm, 30 °C, 0.4 mL/min, estimated dead time 0.28 min; A: water + 0.1% formic acid, pH 3; B: acetonitrile + 0.1% formic acid, pH 3; gradient (min/%B) 0/1 5/10 8/25 9.1/99 10/99 12/1
[9] = RP, Phenomenex Synergi Hydro-RP, 250 × 2 mm, 4 µm, 25 °C, 0.2 mL/min, estimated dead time 2.5 min; A: water + 0.1% formic acid, pH 3; B: acetonitrile + 0.1% formic acid, pH 3; gradient (min/%B) 0/0.5 7/0.5 12/12.5 25/16.3 47/35 48/65 50/65 50.1/0.5
[10] = RP, Waters ACQUITY UPLC HSS T3, 100 × 2.1 mm, 50 °C; A: water + 0.1% formic acid, pH 3; B: 30% methanol + 70% acetonitrile + 0.1% formic acid, pH 3; gradient (min/%B) 0/5 1/8 2/15 3/40 4/70 4.5/100 5/100 6.4/100 6.6/5 6.8/5 7/5
[11] = RP, Waters ACQUITY UPLC BEH C18, 100 × 2.1 mm, 1.7 µm, 65 °C, 0.4 mL/min, estimated dead time 0.55 min; A: water + 0.1% formic acid, pH 3; B: 80% acetonitrile + 20% acetone + 0.1% formic acid, pH 3; gradient (min/%B) 0/0 5/100 5.5/0 6/0
[12] = RP, Waters ACQUITY UPLC BEH Shield RP18, 150 × 2.1 mm, 1.7 µm, 40 °C, 0.4 mL/min, estimated dead time 0.83 min; A: water + 0.1% formic acid, pH 3; B: acetonitrile + 0.1% formic acid, pH 3; gradient (min/%B) 0/0 30/50 31/100 37/100 37.1/0
[13] = RP, 50 × 0.5 mm, 2.7 µm, 35 °C, 0.01 mL/min, estimated dead time 0.62 min; A: water + 0.1% formic acid, pH 3; B: acetonitrile + 0.1% formic acid, pH 3; gradient (min/%B) 0/5 12/95 14/95 16/5
[14] = RP, Waters ACQUITY UPLC BEH Shield RP18, 100 × 2.1 mm, 1.7 µm, 30 °C, 0.6 mL/min, estimated dead time 0.37 min; A: water + 0.1% formic acid, pH 3; B: acetonitrile + 0.1% formic acid, pH 3; gradient (min/%B) 0/0 2/0 7/10 22/95 22.1/0 26/0
[15] = RP, Phenomenex Luna Omega Polar C18, 100 × 2.1 mm, 1.6 µm, 40 °C, 0.5 mL/min, estimated dead time 0.44 min; A: water + 0.5% formic acid; B: acetonitrile + 0.5% formic acid; gradient (min/%B) 0/5 3/50 3.1/100 5/100 5.1/5 7/5
[16] = RP, Phenomenex Synergi Hydro-RP, 150 × 2 mm, 4 µm, 30 °C, 0.5 mL/min, estimated dead time 0.6 min; A: water + 0.1% formic acid, pH 3; B: acetonitrile + 0.1% formic acid, pH 3; gradient (min/%B) 0/5 1/5 35/45 40/100 45/100
[17] = RP, Phenomenex Luna C18, 150 × 4.6 mm, 3 µm, 25 °C, 0.5 mL/min, estimated dead time 3.2 min; A: water + 0.1% formic acid, pH 3; B: acetonitrile + 0.1% formic acid, pH 3; gradient (min/%B) 0/0 30/30 35/40 50/80 52/80 60/0 65/0
[18] = RP, Agilent ZORBAX Eclipse XDB-C18, 100 × 2.1 mm, 1.8 µm, 50 °C, 0.4 mL/min, estimated dead time 0.55 min; A: water + 0.1% formic acid, pH 3; B: methanol + 0.1% formic acid, pH 3; gradient (min/%B) 0/2 10/100 14.5/100 14.51/2 16.5/2

SMILES: O=C(O)CNC(=O)c1ccc(O)cc1 [4-Hydroxyhippuric acid]
LC retention time [6]: 1.55 min | LC retention time [7]: 1.63 min | LC retention time [8]: 3.19 min | LC retention time [3]: 3.82 min | LC retention time [5]: 3.56 min | LC retention time [10]: 2.19 min

SMILES: CC(C)c1cc2c(c(O)c1O)C1(C(=O)O)CCCC(C)(C)C1CC2 (stereo unspecified) [Carnosic acid]
LC retention time [4]: 15.2 min

SMILES: CC(C)c1cc2c(c(O)c1O)C13CCCC(C)(C)C1CC2OC3=O (stereo unspecified) [Carnosol]
LC retention time [11]: 4.02 min | LC retention time [4]: 16.3 min | LC retention time [10]: 4.52 min

SMILES: COc1ccc(C2CC(=O)c3c(O)cc(OC4OC(COC5OC(C)C(O)C(O)C5O)C(O)C(O)C4O)cc3O2)cc1 (stereo unspecified) [Didymin]
LC retention time [4]: 9.08 min

SMILES: COc1ccc(C=CC(=O)O)cc1OC1OC(C(=O)O)C(O)C(O)C1O (stereo unspecified) [Isoferulic acid-3-O-glucuronide]
LC retention time [6]: 4.25 min | LC retention time [7]: 6.38 min | LC retention time [8]: 6.36 min | LC retention time [9]: 34.4 min

SMILES: OC1C(O)C(O)C(O)C(O)C1O (stereo unspecified) [Myo-inositol]
LC retention time [12]: 1.01 min | LC retention time [13]: 2.65 min | LC retention time [14]: 0.58 min | LC retention time [1]: 0.86 min | LC retention time [15]: 0.54 min | LC retention time [10]: 0.461 min

SMILES: Oc1cc(O)c2c(c1)OC(c1ccc(O)c(O)c1)C(O)C2c1c(O)cc(O)c2c1OC(c1ccc(O)c(O)c1)C(O)C2c1c(O)cc(O)c2c1OC(c1ccc(O)c(O)c1)C(O)C2 (stereo unspecified) [Procyanidin C1]
LC retention time [4]: 6.03 min

SMILES: O=C(O)c1ccc(OS(=O)(=O)O)c(O)c1 [Protocatechuic acid-4-O-sulfate]
LC retention time [6]: 2.38 min | LC retention time [7]: 0.954 min | LC retention time [8]: 2.44 min

SMILES: O=c1c(O)c(-c2ccc(OS(=O)(=O)O)c(O)c2)oc2cc(OS(=O)(=O)O)cc(O)c12 [Quercetin disulfate]
LC retention time [13]: 4.84 min | LC retention time [17]: 31.6 min

SMILES: COc1cc(O)c2c(c1)OC(c1ccc(O)cc1)CC2=O (stereo unspecified) [Sakuranetin]
LC retention time [4]: 12.1 min

SMILES: COc1cc(C(=O)O)ccc1OS(=O)(=O)O [Vanillic acid-4-O-sulfate]
LC retention time [6]: 3.13 min | LC retention time [7]: 2 min | LC retention time [8]: 3.82 min

SMILES: C[N+]1(C)CCCC1C(=O)[O-] (stereo unspecified) [stachydrine (proline betaine)]
LC retention time [16]: 0.844 min

SMILES: C[n+]1cccc(C(=O)[O-])c1 [trigonelline]
LC retention time [16]: 0.731 min

SMILES: O=c1oc2cc(O)ccc2c2ccc(O)cc12 [urolithin A]
LC retention time [16]: 21 min

Continued, values first:

LC retention time [1]: 7.91 min | LC retention time [2]: 4.79 min | LC retention time [3]: 4.2 min | LC retention time [4]: 2.05 min | LC retention time [5]: 4.07 min
SMILES: Oc1cc(O)c2c(c1)OC(c1cc(O)c(O)c(O)c1)C(O)C2 (single isomer, unassigned; (-)) [(-)-Epigallocatechin]

LC retention time [6]: 4.51 min | LC retention time [7]: 7.28 min | LC retention time [1]: 9.17 min | LC retention time [8]: 7.32 min | LC retention time [9]: 29.5 min
SMILES: O=C(O)CCc1cccc(O)c1 [3-(3-hydroxyphenyl)propanoic acid]

LC retention time [4]: 12.7 min
SMILES: CC(C)=CCc1c(O)cc(O)c2c1OC(c1ccc(O)cc1)CC2=O (stereo unspecified) [8-prenylnaringenin]

LC retention time [4]: 11.1 min
SMILES: COc1cc(O)c(CC=C(C)C)c2c1C(=O)CC(c1ccc(O)cc1)O2 (stereo unspecified) [Isoxanthumol]

LC retention time [4]: 7.65 min
SMILES: CC1OC(OCC2OC(Oc3cc(O)c4c(c3)OC(c3ccc(O)cc3)CC4=O)C(O)C(O)C2O)C(O)C(O)C1O (stereo unspecified) [Narirutin]

LC retention time [16]: 3.77 min
SMILES: O=S(=O)(O)Oc1c(O)cccc1O [Pyrogallol-2-O-sulfate]

LC retention time [3]: 2.06 min | LC retention time [4]: 1.93 min | LC retention time [5]: 1.87 min
SMILES: Oc1cccc(O)c1O [Pyrogallol]

LC retention time [3]: 5.13 min | LC retention time [4]: 6.4 min | LC retention time [5]: 5.11 min | LC retention time [9]: 29.1 min
SMILES: O=c1c(OC2OC(CO)C(O)C(O)C2O)c(-c2ccc(OC3OC(CO)C(O)C(O)C3O)c(O)c2)oc2cc(O)cc(O)c12 (stereo unspecified) [Quercetin-3,4'-diglucoside]

LC retention time [4]: 11.8 min
SMILES: CC(C)c1cc2c(c(O)c1O)C13CCCC(C)(C)C1C(OC3=O)C2O (stereo unspecified) [Rosmanol]

LC retention time [12]: 1.06 min | LC retention time [14]: 0.65 min | LC retention time [1]: 1.03 min | LC retention time [15]: 0.61 min | LC retention time [10]: 0.545 min
SMILES: C[N+]1(C)CCCC1C(=O)[O-] (stereo unspecified) [Stachydrine]

LC retention time [4]: 15.4 min
SMILES: COc1cc(O)c(CC=C(C)C)c(O)c1C(=O)C=Cc1ccc(O)cc1 [Xanthohumol]

LC retention time [18]: 12.5 min | LC retention time [13]: 13.2 min | LC retention time [14]: 18.1 min | LC retention time [1]: 15.6 min | LC retention time [11]: 5.55 min | LC retention time [15]: 4.03 min
SMILES: Cc1c(C)c2c(c(C)c1O)CCC(C)(CCCC(C)CCCC(C)CCCC(C)C)O2 (stereo not drawn) [alpha-tocopherol]

LC retention time [15]: 3.92 min
SMILES: CCC(CCC(C)C1CCC2C3CC=C4CC(O)CCC4(C)C3CCC12C)C(C)C (stereo not drawn) [beta-sitosterol]

LC retention time [16]: 2.13 min
SMILES: O=C(O)c1cc(O)c(O)c(O)c1 [gallic acid]

LC retention time [16]: 5 min
SMILES: OCCc1ccc(O)c(O)c1 [hydroxytyrosol]

LC retention time [4]: 7.37 min | LC retention time [9]: 38.3 min
SMILES: O=c1c(O)c(-c2ccc(O)cc2)oc2cc(OC3OC(CO)C(O)C(O)C3O)cc(O)c12 (stereo unspecified) [kaempferol-7-O-glucoside]

LC retention time [16]: 8.53 min
SMILES: OC1C(O)C(O)C(O)C(O)C1O (stereo unspecified) [myo-inositol]

LC retention time [16]: 4.64 min
SMILES: Cn1cnc2c1c(=O)[nH]c(=O)n2C [theobromine]

LC retention time [16]: 28.6 min
SMILES: O=c1oc2cc(O)ccc2c2ccccc12 [urolithin B]
